Laboratory results: patent US8853264B2, “Use of lignan compounds for treating or preventing inflammatory disease” (Newtree Industry Co., Ltd., priority 2005, dated 2014)

Tests used:
PGE2 = PGE2 production in macrophages activated by LPS (ELISA); assay type: cell-based
Method: First, 1×10^6 cells/ml of RAW264.7 cells were inoculated into a 96-well tissue culture plate and left to stand at room temperature for 5 hours. Then, the inventive macelignan was added to the cells at each of concentrations of 1-20 μM and incubated for 2 hours. A negative control group was not treated with anything, and a positive control group was treated with curcumin (isolated from Curcuma longa; Sigma) reported to have PGE2 inhibitory activity. Then, the cells were treated with 1 μg/ml of LPS and cultured for 18 hours. The production of PGE2 in the macrophages was quantified by an assay kit (R&D System Inc, Minneapolis, USA) using an ELISA method (Chen et al., Biochem. Pharmacol., 68: 1089-1100, 2002).

[1] = system: edemas of the rat ears induced by TPA; experiment: TPA-induced rat ear edema inhibition test; assay type: in vivo, Wistar rats; conditions: for Edema thickness: topical in acetone 30 min after TPA, measured after 8 hours
Method: The anti-inflammatory activity of the lignan compound isolated and purified in <Example 1> was tested in animal models. The anti-inflammatory activity was measured by edema inhibition test on rats. As the test animals, 5-week-old Wistar rats (DaeHan Biolink Co., Ltd, Korea) were used. The animals were provided with standard pellet forming rat feed (Cheiljedang Corporation, Korea) and given freely to feed and water. Also, the animals were housed in conditions of 12-hr light/12-hr dark cycle, temperature of 25±2° C. and humidity of 60±10%. Inflammation inducing agent TPA (12-O-tetradecanoylphorbol-13-acetate; Sigma) was dissolved in acetone to a concentration of 200 μg/mL. The edemas of the rat ears were induced by applying the TPA solution locally to each of the outer and inner faces of the ear in an amount of 10 μl/ear (4 μg/ear). The macelignan purified in <Example 1> and non-steroidal anti-inflammatory drug indomethacin as a control substance were dissolved in acetone and used in amounts of 20, 200 and 2000 μg/ear. Each of the macelignan and the indomethacin was applied locally to the rat ears at 30 minutes after treatment with TPA. A control group was locally applied with acetone. The thickness of the rat ears was measured with a caliper 8 hours after treatment with each of the substances. An increase in the ear thickness in the group treated with the sample was compared to that of the group untreated with the sample, and inflammation inhibitory effect was measured by calculating percent edema inhibition.

IgE = experiment: Total IgE in serum, mite antigen-induced atopic dermatitis; assay type: in vivo, NC/Nga mice; conditions: for IgE: 2 weeks, serum; for total IgE level compared to the positive control group: p<0.01
Method: 8-week-old NC/Nga mice (20-25 g) were purchased from Chungang Lab. Animal. After adapting for 1 week, the NC/Nga mouse was anesthetized with 90% ethyl ether (Ducsan, Korea) and hair was removed from the occipital region and the back of the mouse using depilatory cream (Reckitt Benckiser, France). After allowing micro wound healing for a day, 100 mg of mite antigen cream (Biostir, Inc. Japan) comprising Dermatophagoides farina, which causes atopic dermatitis, as a main ingredient was evenly applied on the ear, occipital region and back, 3 times a week (for 5 weeks, from week 9 to week 13). 2 hours before application of the mite antigen cream, 4% SDS solution was applied at the same area to increase transdermal absorption of the mite antigen cream by inducing the breakdown of skin fats and cuticle layer. From week 3 following the application, IgE value was measured to quantitate the degree of atopic dermatitis. Also during the drug treatment period (week 12 to week 13), 100 mg of the mite antigen cream was applied 3 times a week to prevent spontaneous healing of the atopic dermatitis.
In order to induce atopic dermatitis, 100 mg of mite antigen cream was applied on the ear, occipital region and back of NC/Nga mouse (9 to 11 weeks old), except for the negative control group, 3 times a week, 2 hours after the application of 4% SDS solution. Three weeks later, it was observed whether atopic dermatitis was induced by checking skin rash, erythema, cornification, or the like. Atopic dermatitis was induced in all groups except for the negative control group. For drug treatment and evaluation of therapeutic effect, mice were grouped into 12 groups, 6 oral administration groups and 6 topical application groups (each consisting of negative control group, positive control group, macelignan low conc. group, macelignan high conc. group, nutmeg extract low conc. group, and nutmeg extract high conc. group), with n=5 per cage. During the following drug treatment and evaluation period of 2 weeks (12 to 13 weeks old), the negative control groups, which had not been treated with 4% SDS solution and mite antigen cream, were treated with physiological saline (oral administration group) or base cream (topical application group) every day, and the positive control groups, which had been treated with 100 mg of mite antigen cream 2 hours after application of 4% SDS solution, 3 times every week, were treated with physiological saline (oral administration group) or base cream (topical application group). The oral administration groups were treated with 100 mg of mite antigen cream 2 hours after application of 4% SDS solution, 3 times every week, and were treated with macelignan or nutmeg extract at low concentration (50 mg/kg/day) or high concentration (150 mg/kg/day) every day. The topical application groups were treated with 100 mg of mite antigen cream 2 hours after application of 4% SDS solution, 3 times every week, and were treated with macelignan cream or nutmeg extract cream at low concentration (20 mg/kg/day) or high concentration (60 mg/kg/day) every day. Transepidermal water loss (TEWL), skin hydration and erythema index were measured one day before the end of the test. Serum was obtained by retro-orbital blood sampling. After the end of the test (14 weeks old) spleen and skin tissues from occipital region and back were sampled and stored at −70° C. ALN (axillary lymph node) was stored in DMEM containing 2% FBS (fetal bovine serum). The skin tissues were stored in 10% formalin solution.
Blood was taken by retro-orbital blood sampling using a capillary tube (Chase Scientific Glass, Inc., USA), which was centrifuged at 13,000 rpm to obtain serum. IgE level was measured using a mouse IgE ELISA kit (Immunology Consultants Laboratory, Inc., USA).

COc1cc(C[C@H](C)[C@H](C)Cc2ccc3c(c2)OCO3)ccc1O (single isomer, unassigned) [macelignan]
production of PGE2 (PGE2; 1-20 μM, LPS 1 μg/ml, 18 hours, effect shown even at 5 μM): concentration-dependently inhibited
PGE2 production-inhibitory effect compared with curcumin (PGE2; positive control curcumin, P<0.05): almost similar to the case of treatment with curcumin
Edema inhibition ([1]; dose 20 μg/ear): 36.7%
Edema thickness ([1]; dose 20 μg/ear): 157 ± 9 μm
Edema inhibition ([1]; dose 200 μg/ear): 60.5%
Edema thickness ([1]; dose 200 μg/ear): 98 ± 6 μm
Edema inhibition ([1]; dose 2000 μg/ear): 79.0%
Edema thickness ([1]; dose 2000 μg/ear): 52 ± 4 μm
percent edema inhibition compared with indomethacin ([1]; local application on rat ears): higher than that of currently commercially available anti-inflammatory drug indomethacin
rat edema induced by TPA (result in words) ([1]; local application on rat ears): inhibited the formation of edema in a concentration-dependent manner
IgE (IgE; oral administration 50 mg/kg/day): 19.6 ± 13.5 µg/mL
IgE (IgE; oral administration 150 mg/kg/day): 16.6 ± 5.3 µg/mL
total IgE level compared to the positive control group (IgE; oral administration 50 and 150 mg/kg): statistically significant decrease in total IgE level
total IgE level compared to the positive control group (IgE; topical application 20 and 60 mg/kg): statistically significant decrease in total IgE level
IgE (IgE; topical application (cream) 20 mg/kg/day): 22.1 ± 3.6 µg/mL
IgE (IgE; topical application (cream) 60 mg/kg/day): 18.6 ± 4.1 µg/mL
